Experiments:
[1] = system: azole-resistant Candida albicans R357 strain; assay: microbe, parasite or virus in culture; type: cell-based; conditions: for MIC: Candida albicans
[2] = system: C. glabrata CG01, ATCC 200918, MMX 7070; assay: Time-kill assay in vagina-simulative medium pH 4.0 (Table 17); type: cell-based, Candida glabrata; conditions: C. glabrata CG01 (FLU S), VSM pH 4.0
[3] = system: C. tropicalis CTO2, MMX 7255, MMX 7525; assay: Time-kill assay in vagina-simulative medium pH 4.0 (Table 18); type: cell-based, Candida tropicalis; conditions: C. tropicalis CT02 (FLU S), VSM pH 4.0
[4] = system: C. albicans ATCC 44858, DPL001, R357; assay: Time-kill assay in vagina-simulative medium pH 4.0 (Table 16); type: cell-based, Candida albicans; conditions: ATCC 44858 (FLU S)
[5] = system: C. parapsilosis CP02, CP01, MMX 7370; assay: Time-kill assay in vagina-simulative medium pH 4.0 (Table 19); type: cell-based, Candida parapsilosis; conditions: C. parapsilosis CP02 (FLU S), VSM pH 4.0

CC[C@@H]([C@H](C)O)n1ncn(-c2ccc(N3CCN(c4ccc(OC[C@@H]5CO[C@@](Cn6cncn6)(c6ccc(F)cc6F)C5)cc4)CC3)cc2)c1=O [Posaconazole]
MIC [1]: > 64 µg/mL

CC(C)N1CCN(c2ccc(OCC3COC(Cn4cncn4)(c4ccc(Cl)cc4Cl)O3)cc2)CC1 (stereo not drawn) [TCZ, terconazole]
log-fold changes in CFU ([2]; 24 h, 2 μg/mL): 2.43 log-fold | log-fold changes in CFU ([2]; 24 h, 8 μg/mL): 2.43 log-fold | log-fold changes in CFU ([2]; 24 h, 32 μg/mL): 2.40 log-fold | log-fold changes in CFU ([2]; 24 h, 128 μg/mL): 1.79 log-fold | log-fold changes in CFU ([2]; 48 h, 2 μg/mL): 2.42 log-fold | log-fold changes in CFU ([2]; 48 h, 8 μg/mL): 2.45 log-fold | log-fold changes in CFU ([2]; 48 h, 32 μg/mL): 2.36 log-fold | log-fold changes in CFU ([2]; 48 h, 128 μg/mL): 2.35 log-fold | log-fold changes in CFU ([2]; 72 h, 2 μg/mL): 2.47 log-fold | log-fold changes in CFU ([2]; 72 h, 8 μg/mL): 2.19 log-fold | log-fold changes in CFU ([2]; 72 h, 32 μg/mL): 2.21 log-fold | log-fold changes in CFU ([2]; 72 h, 128 μg/mL): 2.30 log-fold | log-fold changes in CFU ([3]; 24 h, 2 μg/mL): 2.39 log-fold | log-fold changes in CFU ([3]; 24 h, 8 μg/mL): 2.33 log-fold | log-fold changes in CFU ([3]; 24 h, 32 μg/mL): 0.00 log-fold | log-fold changes in CFU ([3]; 24 h, 128 μg/mL): −1.00 log-fold | log-fold changes in CFU ([3]; 48 h, 2 μg/mL): 2.57 log-fold | log-fold changes in CFU ([3]; 48 h, 8 μg/mL): 2.33 log-fold | log-fold changes in CFU ([3]; 48 h, 32 μg/mL): 0.23 log-fold | log-fold changes in CFU ([3]; 48 h, 128 μg/mL): −1.00 log-fold | log-fold changes in CFU ([3]; 72 h, 2 μg/mL): 2.65 log-fold | log-fold changes in CFU ([3]; 72 h, 8 μg/mL): 2.52 log-fold | log-fold changes in CFU ([3]; 72 h, 32 μg/mL): 0.27 log-fold | log-fold changes in CFU ([3]; 72 h, 128 μg/mL): −0.94 log-fold | log-fold change in CFU ([4]; 24 h, 2 μg/mL): 0.33 log-fold | log-fold change in CFU ([4]; 24 h, 8 μg/mL): 0.33 log-fold | log-fold change in CFU ([4]; 24 h, 32 μg/mL): −1.16 log-fold | log-fold change in CFU ([4]; 24 h, 128 μg/mL): −1.41 log-fold | log-fold change in CFU ([4]; 48 h, 2 μg/mL): 2.00 log-fold | log-fold change in CFU ([4]; 48 h, 8 μg/mL): 1.38 log-fold | log-fold change in CFU ([4]; 48 h, 32 μg/mL): −1.07 log-fold | log-fold change in CFU ([4]; 48 h, 128 μg/mL): −1.64 log-fold | log-fold change in CFU ([4]; 72 h, 2 μg/mL): 2.52 log-fold | log-fold change in CFU ([4]; 72 h, 8 μg/mL): 2.27 log-fold | log-fold change in CFU ([4]; 72 h, 32 μg/mL): −0.41 log-fold | log-fold change in CFU ([4]; 72 h, 128 μg/mL): −0.81 log-fold | log-fold changes in CFU ([5]; 24 h, 2 μg/mL): 0.21 log-fold | log-fold changes in CFU ([5]; 24 h, 8 μg/mL): −0.79 log-fold | log-fold changes in CFU ([5]; 24 h, 32 μg/mL): −0.89 log-fold | log-fold changes in CFU ([5]; 24 h, 128 μg/mL): −0.95 log-fold | log-fold changes in CFU ([5]; 48 h, 2 μg/mL): 1.89 log-fold | log-fold changes in CFU ([5]; 48 h, 8 μg/mL): −0.64 log-fold | log-fold changes in CFU ([5]; 48 h, 32 μg/mL): −2.48 log-fold | log-fold changes in CFU ([5]; 48 h, 128 μg/mL): −2.65 log-fold | log-fold changes in CFU ([5]; 72 h, 2 μg/mL): 2.00 log-fold | log-fold changes in CFU ([5]; 72 h, 8 μg/mL): −0.63 log-fold | log-fold changes in CFU ([5]; 72 h, 32 μg/mL): −2.78 log-fold | log-fold changes in CFU ([5]; 72 h, 128 μg/mL): −2.95 log-fold

C[C@@H](c1ncncc1F)[C@](O)(Cn1cncn1)c1ccc(F)cc1F [Voriconazole]
Susceptibility (CLSI) ([1]; C. albicans R357): R | MIC [1]: > 64 µg/mL
